Experimental data from the supplement of paper PMC10307832.

Columns and labels:
Experiment in all cases: relative viability (nuclei count vs DMSO), 5 days (fraction); higher = more cells survive
[1] = tested on: NCI-H2023
Procedure, shortened: (§1)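 For relative viability, nuclei counts in treated wells were divided by those in vehicle wells. Lung cancer cell lines had been pin-tool dosed in 1536-well plates the day after seeding and cultured for 5 days, then fixed and stained in one step (final 0.05% Triton X-100, 1% formaldehyde, 1 ug/ml Hoechst) and imaged at 4×. Doses were one drug alone or a fixed anchor-drug dose plus five library-drug doses (not always all listed) in √10 steps, and values are duplicate-plate medians.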

[2] = tested on: COR-L23
Procedure, shortened: as §1

[3] = tested on: HCC-366
Procedure, shortened: as §1

[4] = tested on: SW 1573
Procedure, shortened: as §1

[5] = tested on: NCI-H3122
Procedure, shortened: as §1

[6] = tested on: NCI-H2009
Procedure, shortened: as §1

[7] = tested on: ABC-1
Procedure, shortened: as §1

[8] = tested on: EPLC-272H
Procedure, shortened: as §1

[9] = tested on: HCC-15
Procedure, shortened: as §1

[10] = tested on: PC-14
Procedure, shortened: as §1

[11] = tested on: NCI-H1355
Procedure, shortened: as §1

[12] = tested on: NCI-H2228
Procedure, shortened: as §1

[13] = tested on: NCI-H2347
Procedure, shortened: as §1

[14] = tested on: NCI-H1944
Procedure, shortened: as §1

[15] = tested on: NCI-H1793
Procedure, shortened: as §1

[16] = tested on: NCI-H2085
Procedure, shortened: as §1

[17] = tested on: HCC-827
Procedure, shortened: as §1

[18] = tested on: ChaGo-K-1
Procedure, shortened: as §1

[19] = tested on: LCLC-103H
Procedure, shortened: as §1

[20] = tested on: NCI-H2405
Procedure, shortened: as §1

[21] = tested on: NCI-H1734
Procedure, shortened: as §1

For `CN1CCN(CCOc2cc(OC3CCOCC3)c3c(Nc4c(Cl)ccc5c4OCO5)ncnc3c2)CC1` [Saracatinib] + Cc1nc(Nc2ncc(C(=O)Nc3c(C)cccc3Cl)s2)cc(N2CCN(CCO)CC2)n1 [Dasatinib] (partner 0.075 µM), the relative viability ([1]; first compound 0.02 µM) was 0.664, the relative viability ([1]; first compound 0.2 µM) was 0.651 and the relative viability ([1]; first compound 0.6325 µM) was 0.608. For the same molecule, the relative viability ([1]; first compound 2 µM) was 0.553, the relative viability ([2]; first compound 0.02 µM) was 0.553 and the relative viability ([2]; first compound 0.2 µM) was 0.533. The relative viability ([2]; first compound 0.6325 µM) was 0.542, the relative viability ([2]; first compound 2 µM) was 0.478 and the relative viability ([3]; first compound 0.02 µM) was 0.636. It also gave a relative viability ([3]; first compound 0.6325 µM) of 0.678, a relative viability ([3]; first compound 2 µM) of 0.607 and a relative viability ([4]; first compound 0.02 µM) of 0.463. It also gave a relative viability ([4]; first compound 0.2 µM) of 0.454, a relative viability ([4]; first compound 0.6325 µM) of 0.489 and a relative viability ([4]; first compound 2 µM) of 0.336. It also gave a relative viability ([5]; first compound 0.02 µM) of 0.879, a relative viability ([5]; first compound 0.2 µM) of 0.666 and a relative viability ([5]; first compound 0.6325 µM) of 0.562. The relative viability ([5]; first compound 2 µM) was 0.655, the relative viability ([6]; first compound 0.02 µM) was 0.298 and the relative viability ([6]; first compound 0.2 µM) was 0.274. For the same molecule, the relative viability ([6]; first compound 0.6325 µM) was 0.262, the relative viability ([6]; first compound 2 µM) was 0.265 and the relative viability ([7]; first compound 0.02 µM) was 0.673. The relative viability ([7]; first compound 0.2 µM) was 0.591, the relative viability ([7]; first compound 0.6325 µM) was 0.616 and the relative viability ([7]; first compound 2 µM) was 0.514. For the same molecule, the relative viability ([8]; first compound 0.02 µM) was 0.382, the relative viability ([8]; first compound 0.2 µM) was 0.401 and the relative viability ([8]; first compound 0.6325 µM) was 0.375. For the same molecule, the relative viability ([8]; first compound 2 µM) was 0.307, the relative viability ([9]; first compound 0.02 µM) was 0.595 and the relative viability ([9]; first compound 0.2 µM) was 0.524. For the same molecule, the relative viability ([9]; first compound 0.6325 µM) was 0.605, the relative viability ([9]; first compound 2 µM) was 0.561 and the relative viability ([10]; first compound 0.02 µM) was 0.211. For the same molecule, the relative viability ([10]; first compound 0.2 µM) was 0.127, the relative viability ([10]; first compound 0.6325 µM) was 0.0455 and the relative viability ([10]; first compound 2 µM) was 0.0398. The relative viability ([11]; first compound 0.02 µM) was 0.716, the relative viability ([11]; first compound 0.2 µM) was 0.703 and the relative viability ([11]; first compound 0.6325 µM) was 0.774. For the same molecule, the relative viability ([11]; first compound 2 µM) was 0.731, the relative viability ([12]; first compound 0.02 µM) was 0.501 and the relative viability ([12]; first compound 0.2 µM) was 0.556. For the same molecule, the relative viability ([12]; first compound 0.6325 µM) was 0.576, the relative viability ([12]; first compound 2 µM) was 0.372 and the relative viability ([13]; first compound 0.02 µM) was 0.305. For the same molecule, the relative viability ([13]; first compound 0.2 µM) was 0.293, the relative viability ([13]; first compound 0.6325 µM) was 0.32 and the relative viability ([13]; first compound 2 µM) was 0.346. For the same molecule, the relative viability ([14]; first compound 0.02 µM) was 0.219, the relative viability ([14]; first compound 0.6325 µM) was 0.182 and the relative viability ([14]; first compound 2 µM) was 0.181. It also gave a relative viability ([15]; first compound 0.02 µM) of 0.439, a relative viability ([15]; first compound 0.6325 µM) of 0.426 and a relative viability ([15]; first compound 2 µM) of 0.341. The relative viability ([16]; first compound 0.02 µM) was 0.286, the relative viability ([16]; first compound 0.2 µM) was 0.321 and the relative viability ([16]; first compound 0.6325 µM) was 0.345. The relative viability ([16]; first compound 2 µM) was 0.3, the relative viability ([17]; first compound 0.02 µM) was 0.3 and the relative viability ([17]; first compound 0.2 µM) was 0.136. It also gave a relative viability ([17]; first compound 0.6325 µM) of 0.22, a relative viability ([17]; first compound 2 µM) of 0.131 and a relative viability ([18]; first compound 0.02 µM) of 0.732. The relative viability ([18]; first compound 0.2 µM) was 0.431, the relative viability ([18]; first compound 0.6325 µM) was 0.657 and the relative viability ([18]; first compound 2 µM) was 0.459. It also gave a relative viability ([19]; first compound 0.02 µM) of 0.475, a relative viability ([19]; first compound 0.2 µM) of 0.496 and a relative viability ([19]; first compound 0.6325 µM) of 0.466. For the same molecule, the relative viability ([19]; first compound 2 µM) was 0.515, the relative viability ([20]; first compound 0.02 µM) was 0.22 and the relative viability ([20]; first compound 0.2 µM) was 0.223. For the same molecule, the relative viability ([20]; first compound 0.6325 µM) was 0.228, the relative viability ([20]; first compound 2 µM) was 0.169 and the relative viability ([21]; first compound 0.02 µM) was 0.455. For the same molecule, the relative viability ([21]; first compound 0.6325 µM) was 0.49 and the relative viability ([21]; first compound 2 µM) was 0.469.
